Here are results for twelve molecules from patent US12398101B2, “Herbicidal 2-azaspiro[3-5]nonane compounds” (SYNGENTA CROP PROTECTION AG, priority 2018, dated 2025).

Assay type in all cases: in vivo
Holding throughout (settings): 250 g/h, evaluated after 13 days

Experiment [1] relates to Avena fatua (AVEFA). Briefly: Glasshouse herbicide test, pre-emergence application. On the procedure: (§1) Seeds of a variety of test species are sown in standard soil in pots (Lolium perenne (LOLPE), Setaria faberi (SETFA), Echinochloa crus-galli (ECHCG), Avena fatua (AVEFA)). After cultivation for one day (pre-emergence) or after 8 days cultivation (post-emergence) under controlled conditions in a glasshouse (at 24/16° C., day/night; 14 hours light; 65% humidity), the plants are sprayed with an aqueous spray solution derived from the formulation of the technical active ingredient in acetone/water (50:50) solution containing 0.5% Tween 20 (polyoxyethelyene sorbitan monolaurate, CAS RN 9005-64-5). Compounds are applied at 250 g/h. The test plants are then grown in a glasshouse under controlled conditions in a glasshouse (at 24/16° C., day/night; 14 hours light; 65% humidity) and watered twice daily. After 13 days for pre and post-emergence, the test is evaluated for the percentage damage caused to the plant. The biological activities are shown in the following table on a five point scale (5=80-100%; 4=60-79%; 3=40-59%; 2=20-39%; 1=0-19%).

In experiment [2] the test system is Echinochloa crus-galli (ECHCG). The experiment is described as above. The protocol: as §1
Experiment [3] concerns Lolium perenne (LOLPE). The experiment is described as above. The protocol:
as §1

Experiment [4] has as its system Setaria faberi (SETFA). The description is as above. The protocol:
as §1

Experiment [5] has as its system Avena fatua (AVEFA). Briefly: Glasshouse herbicide test, post-emergence application. The protocol: as §1
For experiment [6], the system named is Echinochloa crus-galli (ECHCG). The experiment is described as above. The protocol:
as §1

The subject of experiment [7] is Lolium perenne (LOLPE). Described as above. On the procedure: as §1
Experiment [8] relates to Setaria faberi (SETFA). The description is as above. On the procedure: as §1

For the molecule `CC#Cc1cc(Cl)c(C2C(=O)CC3(CC2=O)CN(C(=O)C(C)(C)C)C3)c(OC)c1` [Compound 1.202], the “percentage damage caused to the plant, five point scale, AVEFA” value (from here on “percentage damage caused … AVEFA”) in the experiment with Avena fatua (AVEFA) [1] and with Avena fatua (AVEFA) [5] was 5 (5=80-100%) throughout. Moreover, the “percentage damage caused to the plant, five point scale, ECHCG” value (from here on “percentage damage caused … ECHCG”) in experiment [2] and in experiment [6] was 5 (5=80-100%) throughout. The “percentage damage caused to the plant, five point scale, LOLPE” value (from here on “percentage damage caused … LOLPE”) with Lolium perenne (LOLPE) [3] and with Lolium perenne (LOLPE) [7] was 5 (5=80-100%) throughout. Further, the “percentage damage caused to the plant, five point scale, SETFA” value (from here on “percentage damage caused … SETFA”) in the experiment on Setaria faberi (SETFA) [4] and in the experiment on Setaria faberi (SETFA) [8] was 5 (5=80-100%) each time.

With `CC#Cc1cc(C)c(C2C(=O)CC3(CC2=O)CN(C(=O)C(F)F)C3)c(OC)c1` [Compound 1.024], the “percentage damage caused … AVEFA” value with Avena fatua (AVEFA) [1] and with Avena fatua (AVEFA) [5] was 5 (5=80-100%) each time. Besides, the “percentage damage caused … ECHCG” value in experiment [2] and in experiment [6] was 5 (5=80-100%) each time. Also, the “percentage damage caused … LOLPE” value in the experiment on Lolium perenne (LOLPE) [3] and in the experiment with Lolium perenne (LOLPE) [7] was 5 (5=80-100%) each time. In addition, the “percentage damage caused … SETFA” value with Setaria faberi (SETFA) [4] and in the experiment with Setaria faberi (SETFA) [8] was 5 (5=80-100%) each time.

Consider `CC#Cc1cc(C)c(C2C(=O)CC3(CC2=O)CN(C(C)=O)C3)c(OC)c1` [Compound 1.013], for which the “percentage damage caused … AVEFA” value with Avena fatua (AVEFA) [1] and in the experiment with Avena fatua (AVEFA) [5] was 5 (5=80-100%) in each case. The “percentage damage caused … ECHCG” value in experiment [2] and in experiment [6] was 5 (5=80-100%) in each case. Besides, the “percentage damage caused … LOLPE” value in the experiment with Lolium perenne (LOLPE) [3] and in the experiment on Lolium perenne (LOLPE) [7] was 5 (5=80-100%) throughout. Moreover, the “percentage damage caused … SETFA” value in the experiment on Setaria faberi (SETFA) [4] and with Setaria faberi (SETFA) [8] was 5 (5=80-100%) in each case.

`CC#Cc1cc(Cl)c(C2C(=O)CC3(CC2=O)CN(C(C)=O)C3)c(OC)c1` [Compound 1.195]: the “percentage damage caused … AVEFA” value with Avena fatua (AVEFA) [1] and in the experiment on Avena fatua (AVEFA) [5] was 5 (5=80-100%) in each case. The “percentage damage caused … ECHCG” value in experiment [2] and in experiment [6] was 5 (5=80-100%) each time. The “percentage damage caused … LOLPE” value with Lolium perenne (LOLPE) [3] and in the experiment on Lolium perenne (LOLPE) [7] was 5 (5=80-100%) throughout. The “percentage damage caused … SETFA” value with Setaria faberi (SETFA) [4] and in the experiment with Setaria faberi (SETFA) [8] was 5 (5=80-100%) in each case.

Take `CC#Cc1cc(C)c(C2C(=O)CC3(CC2=O)CN(C(=O)C2CC2)C3)c(OC)c1` [Compound 1.020]: the “percentage damage caused … AVEFA” value in the experiment with Avena fatua (AVEFA) [1] and in the experiment on Avena fatua (AVEFA) [5] was 5 (5=80-100%) in each case. In addition, the “percentage damage caused … ECHCG” value in experiment [2] and in experiment [6] was 5 (5=80-100%) throughout. The “percentage damage caused … LOLPE” value in the experiment on Lolium perenne (LOLPE) [3] and with Lolium perenne (LOLPE) [7] was 5 (5=80-100%) throughout. Further, the “percentage damage caused … SETFA” value with Setaria faberi (SETFA) [4] and in the experiment on Setaria faberi (SETFA) [8] was 5 (5=80-100%) throughout.

As to `CC#Cc1cc(C)c(C2C(=O)CC3(CC2=O)CN(C(=O)C(F)F)C3)c(C)c1` [Compound 1.009], the “percentage damage caused … AVEFA” value in the experiment with Avena fatua (AVEFA) [1] and with Avena fatua (AVEFA) [5] was 5 (5=80-100%) each time. In addition, the “percentage damage caused … ECHCG” value in experiment [2] and in experiment [6] was 5 (5=80-100%) in each case. The “percentage damage caused … LOLPE” value with Lolium perenne (LOLPE) [3] and in the experiment on Lolium perenne (LOLPE) [7] was 5 (5=80-100%) in each case. Further, the “percentage damage caused … SETFA” value with Setaria faberi (SETFA) [4] and with Setaria faberi (SETFA) [8] was 5 (5=80-100%) throughout.

For the molecule `CC#Cc1cc(Cl)c(C2C(=O)CC3(CC2=O)CN(C(=O)C2CC2)C3)c(OC)c1` [Compound 1.196], the “percentage damage caused … AVEFA” value with Avena fatua (AVEFA) [1] and in the experiment with Avena fatua (AVEFA) [5] was 5 (5=80-100%) in each case. Also, the “percentage damage caused … ECHCG” value in experiment [2] and in experiment [6] was 5 (5=80-100%) throughout. The “percentage damage caused … LOLPE” value with Lolium perenne (LOLPE) [3] and in the experiment with Lolium perenne (LOLPE) [7] was 5 (5=80-100%) in each case. The “percentage damage caused … SETFA” value with Setaria faberi (SETFA) [4] and in the experiment with Setaria faberi (SETFA) [8] was 5 (5=80-100%) in each case.

Consider `COc1cc(-c2ccc(F)cc2)cc(C)c1C1C(=O)CC2(CC1=O)CN(C(C)=O)C2` [Compound 1.203], for which the “percentage damage caused … AVEFA” value in the experiment with Avena fatua (AVEFA) [1] and in the experiment with Avena fatua (AVEFA) [5] was 5 (5=80-100%) in each case. The “percentage damage caused … ECHCG” value in experiment [2] and in experiment [6] was 5 (5=80-100%) in each case. Also, the “percentage damage caused … LOLPE” value is listed as 4 (4=60-79%) with Lolium perenne (LOLPE) [3] and 5 (5=80-100%) with Lolium perenne (LOLPE) [7]. In addition, the “percentage damage caused … SETFA” value in the experiment on Setaria faberi (SETFA) [4] and in the experiment on Setaria faberi (SETFA) [8] was 5 (5=80-100%) in each case.

In the case of `CC#Cc1cc(C)c(C2C(=O)CC3(CC2=O)CN(C(=O)COC)C3)c(OC)c1` [Compound 1.017], the “percentage damage caused … AVEFA” value in the experiment on Avena fatua (AVEFA) [1] and in the experiment on Avena fatua (AVEFA) [5] was 5 (5=80-100%) throughout. For the same molecule, the entries for the “percentage damage caused … ECHCG” value in experiment [2] and in experiment [6] were 5 (5=80-100%) and 4 (4=60-79%), respectively. The “percentage damage caused … LOLPE” value in the experiment on Lolium perenne (LOLPE) [3] and with Lolium perenne (LOLPE) [7] was 5 (5=80-100%) in each case. Moreover, the “percentage damage caused … SETFA” value in the experiment with Setaria faberi (SETFA) [4] and in the experiment with Setaria faberi (SETFA) [8] was 5 (5=80-100%) in each case.

As for `CC#Cc1cc(C)c(C2C(=O)CC3(CC2=O)CN(C(=O)CC#N)C3)c(OC)c1` [Compound 1.023], the “percentage damage caused … AVEFA” value with Avena fatua (AVEFA) [1] is on record as 2 (2=20-39%); in the experiment on Avena fatua (AVEFA) [5], 5 (5=80-100%). Moreover, the “percentage damage caused … ECHCG” value is 1 (1=0-19%) in experiment [2] and 5 (5=80-100%) in experiment [6]. Also, the results for the “percentage damage caused … LOLPE” value in the experiment on Lolium perenne (LOLPE) [3] and in the experiment on Lolium perenne (LOLPE) [7] were 3 (3=40-59%) and 5 (5=80-100%), respectively. Moreover, the “percentage damage caused … SETFA” value is 3 (3=40-59%) with Setaria faberi (SETFA) [4] and 5 (5=80-100%) in the experiment with Setaria faberi (SETFA) [8].

Turning to `CC#Cc1cc(Cl)c(C2C(=O)CC3(CC2=O)CN(C(=O)c2ccccc2)C3)c(OC)c1` [Compound 1.201], the “percentage damage caused … AVEFA” value in the experiment with Avena fatua (AVEFA) [1] and in the experiment with Avena fatua (AVEFA) [5] was 5 (5=80-100%) in each case. Besides, the “percentage damage caused … ECHCG” value in experiment [2] and in experiment [6] was 5 (5=80-100%) each time. Also, the “percentage damage caused … LOLPE” value in the experiment with Lolium perenne (LOLPE) [3] and in the experiment with Lolium perenne (LOLPE) [7] was 5 (5=80-100%) each time. For the same molecule, the “percentage damage caused … SETFA” value in the experiment on Setaria faberi (SETFA) [4] and in the experiment with Setaria faberi (SETFA) [8] was 5 (5=80-100%) in each case.

As for `CC#Cc1cc(C)c(C2C(=O)CC3(CC2=O)CN(C(=O)NC(=O)c2ccccn2)C3)c(OC)c1` [Compound 1.022], the “percentage damage caused … AVEFA” value is 2 (2=20-39%) in the experiment on Avena fatua (AVEFA) [1] and 5 (5=80-100%) with Avena fatua (AVEFA) [5]. The “percentage damage caused … ECHCG” value in experiment [2] is 4 (4=60-79%); in experiment [6], 5 (5=80-100%). For the same molecule, the results for the “percentage damage caused … LOLPE” value in the experiment with Lolium perenne (LOLPE) [3] and in the experiment on Lolium perenne (LOLPE) [7] were 3 (3=40-59%) and 5 (5=80-100%), respectively. Besides, the “percentage damage caused … SETFA” value in the experiment on Setaria faberi (SETFA) [4] and in the experiment with Setaria faberi (SETFA) [8] was 5 (5=80-100%) in each case.
